Tests used:
[1] = biological target: T1, Glucocorticoid receptor (Homo sapiens, UniProt P04150); assay: Binding affinity to glucocorticoid receptor (unknown origin) by Lanthascreen TR-FRET competition binding assay
T1 sequence (P04150 whole entry): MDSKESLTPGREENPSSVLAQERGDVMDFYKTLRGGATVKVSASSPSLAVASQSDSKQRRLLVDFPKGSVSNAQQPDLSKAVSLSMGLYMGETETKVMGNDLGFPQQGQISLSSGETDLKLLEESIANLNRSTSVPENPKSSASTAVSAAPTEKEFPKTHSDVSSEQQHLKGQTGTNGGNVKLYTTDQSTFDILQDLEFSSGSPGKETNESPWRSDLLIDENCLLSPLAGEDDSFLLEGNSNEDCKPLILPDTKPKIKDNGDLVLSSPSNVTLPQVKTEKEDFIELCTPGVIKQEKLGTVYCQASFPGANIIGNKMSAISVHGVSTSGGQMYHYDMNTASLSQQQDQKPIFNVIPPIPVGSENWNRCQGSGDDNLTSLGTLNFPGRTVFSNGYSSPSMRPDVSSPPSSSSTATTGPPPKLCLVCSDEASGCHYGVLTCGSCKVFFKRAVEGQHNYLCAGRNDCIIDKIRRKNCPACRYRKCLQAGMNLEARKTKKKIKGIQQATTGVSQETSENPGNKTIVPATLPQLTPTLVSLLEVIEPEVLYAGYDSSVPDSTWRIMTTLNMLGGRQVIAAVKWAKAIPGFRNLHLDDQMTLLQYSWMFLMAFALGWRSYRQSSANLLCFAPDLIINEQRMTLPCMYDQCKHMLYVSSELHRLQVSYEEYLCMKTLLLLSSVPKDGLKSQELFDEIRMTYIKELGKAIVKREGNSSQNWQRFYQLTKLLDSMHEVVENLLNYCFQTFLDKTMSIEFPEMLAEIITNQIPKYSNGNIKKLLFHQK

[2] = biological target: T1, Glucocorticoid receptor; assay: Modulation of glucocorticoid receptor (unknown origin) transfected in human HeLa cells assessed as transrepression by measuring inhibition of TNF-alpha induced NF-kappaB signalling incubated for 18 hrs by dual-luciferase reporter based assay; format: cell-based
[3] = biological target: T1, Glucocorticoid receptor; assay: Modulation of glucocorticoid receptor (unknown origin) transfected in human HeLa cells assessed as transrepression by measuring inhibition of PMA-induced AP-1 signalling incubated for 18 hrs by dual-luciferase reporter based assay; format: cell-based

`O=C(c1ccco1)N1CCCc2cc(N(S(=O)(=O)c3ccc(Cl)cc3)S(=O)(=O)c3ccc(Cl)cc3)ccc21` was tested, and the IC50 [1] was > 50000 nM, the IC50 [2] was 450 nM and the IC50 [3] was 3960 nM.

With `O=C(c1ccco1)N1CCCc2cc(N(S(=O)(=O)c3ccc(Br)cc3)S(=O)(=O)c3ccc(Br)cc3)ccc21` the IC50 [2] was > 10000 nM and the IC50 [3] was > 25000 nM.

`C#CC1=C(SCC(=O)c2ccccc2)NC(C)=C(C(C)=O)C1c1cccs1` (centres undefined) gave an IC50 [1] of 1860 nM.

For `COc1cccc(Cl)c1S(=O)(=O)Nc1ccc2c(c1)CCCN2C(=O)c1ccco1`, the IC50 [2] was > 10000 nM and the IC50 [3] was > 10000 nM.

With `O=C(c1ccco1)N1CCCc2cc(N(S(=O)(=O)c3ccc([N+](=O)[O-])cc3)S(=O)(=O)c3ccc([N+](=O)[O-])cc3)ccc21` the IC50 [1] was > 50000 nM, the IC50 [2] was 2660 nM and the IC50 [3] was 4800 nM.

With `COc1cc(C)c(C)cc1S(=O)(=O)Nc1ccc2c(c1)CCCN2C(=O)C1CC1` the IC50 [1] was 7500 nM, the IC50 [2] was 100 nM and the IC50 [3] was 360 nM.

In the case of `CCS(=O)(=O)N(c1ccc2c(c1)CCCN2C(=O)c1ccco1)S(=O)(=O)CC`, the IC50 [2] is reported as > 50000 nM and the IC50 [3] is reported as > 50000 nM.

In the case of `O=C(c1ccco1)N1CCCc2cc(N(S(=O)(=O)c3ccc4c(c3)CCCC4)S(=O)(=O)c3ccc4c(c3)CCCC4)ccc21`, the IC50 [1] is reported as > 50000 nM, the IC50 [2] is reported as 700 nM and the IC50 [3] is reported as 7990 nM.

Work on `O=C(c1ccco1)N1CCCc2cc(NS(=O)(=O)c3ccc(Cl)c(C(F)(F)F)c3)ccc21` yielded an IC50 [1] of 19700 nM, an IC50 [2] of 2450 nM and an IC50 [3] of 4120 nM.

In the case of `COc1ccccc1S(=O)(=O)Nc1ccc2c(c1)CCCN2C(=O)c1ccco1`, the IC50 [1] is reported as > 10000 nM, the IC50 [2] is reported as 900 nM and the IC50 [3] is reported as 4910 nM.

In the case of `N#Cc1ccc(S(=O)(=O)N(c2ccc3c(c2)CCCN3C(=O)c2ccco2)S(=O)(=O)c2ccc(C#N)cc2)cc1`, the IC50 [1] is reported as > 30000 nM, the IC50 [2] is reported as > 10000 nM and the IC50 [3] is reported as 3150 nM.

With `COC(=O)c1ccc(S(=O)(=O)N(c2ccc3c(c2)CCCN3C(=O)c2ccco2)S(=O)(=O)c2ccc(C(=O)OC)cc2)cc1` the IC50 [2] was > 50000 nM and the IC50 [3] was > 10000 nM.

In the case of `O=C(c1ccco1)N1CCCc2cc(NS(=O)(=O)c3ccc([N+](=O)[O-])cc3)ccc21`, the IC50 [1] is reported as > 50000 nM, the IC50 [2] is reported as 3620 nM and the IC50 [3] is reported as 4270 nM.

In the case of `CC(C)(C)c1ccc(S(=O)(=O)N(c2ccc3c(c2)CCCN3C(=O)c2ccco2)S(=O)(=O)c2ccc(C(C)(C)C)cc2)cc1`, the IC50 [2] is reported as > 10000 nM and the IC50 [3] is reported as > 10000 nM.

Compound `O=C(c1ccco1)N1CCCc2cc(NS(=O)(=O)c3ccc4c(c3)CCO4)ccc21` has an IC50 [1] of 1970 nM, an IC50 [2] of 1320 nM and an IC50 [3] of 5040 nM.

In the case of `COc1cc(C)c(Cl)cc1S(=O)(=O)Nc1ccc2c(c1)CCCN2C(=O)c1ccc(C)cc1F`, the IC50 [2] is reported as > 10000 nM and the IC50 [3] is reported as > 10000 nM.

Work on `COc1ccc(C)c(C)c1S(=O)(=O)Nc1ccc2c(c1)CCCN2C(=O)c1ccco1` yielded an IC50 [1] of 1350 nM, an IC50 [2] of 100 nM and an IC50 [3] of 990 nM.

For `O=C(c1ccco1)N1CCCc2cc(NS(=O)(=O)c3ccc(C(F)(F)F)cc3)ccc21`, the IC50 [1] was > 50000 nM, the IC50 [2] was 2620 nM and the IC50 [3] was 3220 nM.

`N#Cc1ccc(S(=O)(=O)Nc2ccc3c(c2)CCCN3C(=O)c2ccco2)cc1` was tested, and the IC50 [2] was > 10000 nM and the IC50 [3] was > 10000 nM.

For `COc1cc(C)c(C)cc1S(=O)(=O)Nc1ccc2c(c1)CCCN2C(=O)C1CCCCC1`, the IC50 [1] was > 50000 nM, the IC50 [2] was 4610 nM and the IC50 [3] was > 10000 nM.

`O=C(c1ccco1)N1CCCc2cc(NS(=O)(=O)c3ccc(F)cc3)ccc21` was tested, and the IC50 [2] was > 10000 nM and the IC50 [3] was > 10000 nM.

With `COc1cc(C)c(Cl)cc1S(=O)(=O)Nc1ccc2c(c1)N(C(=O)c1ccco1)CCC2` the IC50 [1] was > 50000 nM, the IC50 [2] was 60 nM and the IC50 [3] was 680 nM.

`O=C(c1ccco1)N1CCCc2cc(NS(=O)(=O)c3ccc4ccccc4c3)ccc21` gave an IC50 [1] of 1120 nM, an IC50 [2] of 190 nM and an IC50 [3] of 2080 nM.

With `NC(=O)c1ccc(S(=O)(=O)Nc2ccc3c(c2)CCCN3C(=O)c2ccco2)cc1` the IC50 [2] was > 10000 nM and the IC50 [3] was > 10000 nM.

`O=C(c1ccco1)N1CCCc2cc(N(S(=O)(=O)c3cccs3)S(=O)(=O)c3cccs3)ccc21` was tested, and the IC50 [1] was > 50000 nM, the IC50 [2] was 1050 nM and the IC50 [3] was 2860 nM.

For `CN(C)c1cccc2c(S(=O)(=O)Nc3ccc4c(c3)CCCN4C(=O)c3ccco3)cccc12`, the IC50 [1] was > 50000 nM, the IC50 [2] was 210 nM and the IC50 [3] was 1670 nM.

Compound `O=C(c1ccco1)N1CCCc2cc(NS(=O)(=O)c3ccc4c(c3)CCCC4)ccc21` has an IC50 [1] of 1220 nM, an IC50 [2] of 320 nM and an IC50 [3] of 4070 nM.

In the case of `COc1ccc(S(=O)(=O)N(c2ccc3c(c2)CCCN3C(=O)c2ccco2)S(=O)(=O)c2ccc(OC)cc2)cc1`, the IC50 [1] is reported as > 50000 nM, the IC50 [2] is reported as 280 nM and the IC50 [3] is reported as 1050 nM.

With `Cc1ccc(S(=O)(=O)N(c2ccc3c(c2)CCCN3C(=O)c2ccco2)S(=O)(=O)c2ccc(C)cc2)cc1` the IC50 [1] was > 50000 nM, the IC50 [2] was 90 nM and the IC50 [3] was 330 nM.

`O=C(c1ccco1)N1CCCc2cc(NS(=O)(=O)c3ccc(Cl)c([N+](=O)[O-])c3)ccc21` gave an IC50 [1] of 590 nM, an IC50 [2] of 260 nM and an IC50 [3] of 1000 nM.

`CCCCc1ccc(S(=O)(=O)Nc2ccc3c(c2)CCCN3C(=O)c2ccco2)cc1` was tested, and the IC50 [1] was 7160 nM, the IC50 [2] was 1150 nM and the IC50 [3] was 3690 nM.

`COc1ccc(S(=O)(=O)Nc2ccc3c(c2)CCCN3C(=O)c2ccco2)cc1` was tested, and the IC50 [1] was > 50000 nM, the IC50 [2] was 1830 nM and the IC50 [3] was 5620 nM.

`O=C(c1ccco1)N1CCCc2cc(N(S(=O)(=O)c3cccnc3)S(=O)(=O)c3cccnc3)ccc21` was tested, and the IC50 [2] was > 10000 nM and the IC50 [3] was > 50000 nM.

In the case of `O=C(c1ccco1)N1CCCc2cc(N(S(=O)(=O)c3ccc(C(F)(F)F)cc3)S(=O)(=O)c3ccc(C(F)(F)F)cc3)ccc21`, the IC50 [2] is reported as > 50000 nM and the IC50 [3] is reported as > 50000 nM.

In the case of `COc1cc(C)c(Cl)cc1S(=O)(=O)Nc1ccc2c(c1)CCCN2C(=O)c1ccco1`, the IC50 [1] is reported as 5020 nM, the IC50 [2] is reported as 50 nM and the IC50 [3] is reported as > 10000 nM.

`O=C(c1ccco1)N1CCCc2cc(N(S(=O)(=O)c3ccccc3)S(=O)(=O)c3ccccc3)ccc21` was tested, and the IC50 [1] was > 50000 nM, the IC50 [2] was 390 nM and the IC50 [3] was 620 nM.

With `O=C(c1ccco1)N1CCCc2cc(N(S(=O)(=O)Cc3ccccc3)S(=O)(=O)Cc3ccccc3)ccc21` the IC50 [2] was > 50000 nM and the IC50 [3] was > 50000 nM.

`O=C(c1ccco1)N1CCCc2cc(NS(=O)(=O)c3ccc(-c4ccccc4)cc3)ccc21` gave an IC50 [1] of 90 nM, an IC50 [2] of 810 nM and an IC50 [3] of 7220 nM.

Compound `O=C(c1ccco1)N1CCCc2cc(N(S(=O)(=O)c3ccc(-c4ccccc4)cc3)S(=O)(=O)c3ccc(-c4ccccc4)cc3)ccc21` has an IC50 [1] of 2290 nM, an IC50 [2] of 70 nM and an IC50 [3] of 4150 nM.

With `CC(C)(C)c1ccc(S(=O)(=O)Nc2ccc3c(c2)CCCN3C(=O)c2ccco2)cc1` the IC50 [1] was 470 nM, the IC50 [2] was 180 nM and the IC50 [3] was 1150 nM.

`O=C(c1ccco1)N1CCCc2cc(NS(=O)(=O)c3ccccc3)ccc21` was tested, and the IC50 [1] was 1920 nM, the IC50 [2] was 3990 nM and the IC50 [3] was 3830 nM.

For `CCCCS(=O)(=O)N(c1ccc2c(c1)CCCN2C(=O)c1ccco1)S(=O)(=O)CCCC`, the IC50 [1] was > 50000 nM, the IC50 [2] was 1790 nM and the IC50 [3] was 2840 nM.

With `O=C(c1ccco1)N1CCCc2cc(N(S(=O)(=O)c3ccc(F)cc3)S(=O)(=O)c3ccc(F)cc3)ccc21` the IC50 [1] was > 50000 nM, the IC50 [2] was 840 nM and the IC50 [3] was 2250 nM.

For `O=C(c1ccco1)N1CCCc2cc(N(S(=O)(=O)c3cc4ccccc4s3)S(=O)(=O)c3cc4ccccc4s3)ccc21`, the IC50 [1] was > 50000 nM, the IC50 [2] was 430 nM and the IC50 [3] was 3190 nM.

`O=C(c1ccco1)N1CCCc2cc(NS(=O)(=O)c3cccs3)ccc21` was tested, and the IC50 [1] was > 50000 nM, the IC50 [2] was > 10000 nM and the IC50 [3] was 9260 nM.

For `COc1cc(C)c(C)cc1S(=O)(=O)Nc1ccc2c(c1)CCCN2C(=O)c1ccccc1`, the IC50 [1] was > 50000 nM, the IC50 [2] was 890 nM and the IC50 [3] was 1140 nM.

— ChEMBL document CHEMBL5236596, “Discovery and Optimization of N-Acyl-6-sulfonamide-tetrahydroquinoline Derivatives as Novel Non-Steroidal Selective Glucocorticoid Receptor Modulators” (J Med Chem, 2022)
